# Entries after “also recorded” stand apart in the source; their conditions may differ. Where two headings read alike, the source gives them in different places.
# Key:
# [1] = test system: GABA content in brain tissue; test: GABA estimation in brain tissue; type: in vivo, Wistar rats; conditions: 30 mg/kg, n = 5
# Description: The data obtained from the experiments were analyzed and processed and plotted using GraphPad Prism 8 software.
# We i g h about 0.05 g of tissue sample in a homogenizer, add 450 µL of extracting solution
# to homogenize, homogenize, transfer to an EP tube, mark the liquid level scale, and heat for 2
# hours at 95°C. After heating, centrifuge at 8000 × g for 10 min and remove the supernatant for
# ① Standard tube: Ta k e 30 µL of different concentrations of standards and add them to
# the corresponding 1.5 mL EP tube. Measurement tube: Ta k e 30 µL of sample supernatant and
# add it to 1.5 mL EP tube. ② Add 50 µL of buffer solution and 40 µL of Chromogenic Agent A
# to each tube in step, mix we l l , and let stand at room temperature for 5 min. ③ Add 60 µL of
# Chromogenic Agent B to each tube in step, mix we l l , and heat at 95°C for 10 min, then cool at
# ice bath. ④ Add 200 µL of supplementary solution to each tube in step and mix well. ⑤ Ta k e
# 200 µL into the corresponding we l l s of the enzyme plate, and measure the OD va l u e of each
# mice [2] = test: Elevated plus maze (EPM) test; type: in vivo; conditions: n = 6
# Text: The EPM experiment is a method for evaluating whether experimental animals have an anxiety response. The principle is that, in the face of new things, mice will generate curiosity to explore (open arm), while they have a nature of darkness (closed arm), the conflict behavior between the two occurs between exploration and avoidance, resulting in anxiety. Anxious behavior can be evaluated by comparing the retention time of mice in the open and closed arms.
# Flumazenil is a selective BZ antagonist with a chemical structure similar to that of BZs, which acts on central benzodiazepine (BZ) receptors and thus blocks the receptors without producing BZ-like effects.
# The apparatus consisted of a black acrylic maze with two opposite open arms (50×10 cm) and two opposite closed arms (50×10×40 cm) disposed like a plus sign with a central square of 10 cm2. Entire maze wa s elevated 50 cm above the floor. The test consisted in placing the rat in the central square of the maze facing one closed arm and allowing it to explore during 5 min. This procedure wa s performed in a quiet and dimly illuminated room. The scores analysed we r e the time spent in open and closed arms, and the number of entries to both […]
# widely used as an anxiety index (time spent in open arms relative to the time spent in open […]
# and closed arms). […]
# [3] = test system: pentylenetetrazole-induced clonic seizures; test: animal or person; type: in vivo, Kunming mice; conditions: for minimal effective dose: doses 30, 100, 300 mg/kg, read-out: scPTZ, dose at which at least one of three animals was protected
# Description: (§1) Pharmacological tests were performed using two experimental animal models, MES and scPTZ, which were divided into three dosage groups of 30, 100, and 300 mg/kg, and the anticonvulsant activity of the target compounds 6a–m and 9a–g, after 0.5 and 4 h of administration, respectively, were tested. Carbamazepine, which is effective in the MES model, was chosen as a positive control, and ethosuximide, which is effective in the scPTZ model, was chosen as a positive control. […]
# The test compound wa s
# Absence of clonic spasms indicated a […]
# MES-induced seizures = test: animal or person; type: in vivo, Kunming mice; conditions: for minimal effective dose: ip, doses 30, 100, 300 mg/kg, read-out: MES, dose at which at least one of three animals was protected
# Description: as §1
# Protection against the spread of
# extension component of the seizure. […]
# [4] = Rotarod (ROT) neurotoxicity test; conditions: Kunming, mouse, in vivo, intraperitoneal
# mice [5] = test: Rotarod (ROT) neurotoxicity test; conditions: for NT (neurotoxicity, ROT), dose at which at least one of three animals showed neurotoxicity: doses 100, 300 mg/kg
compound,measurement,setting,value
"O=C(Nc1ccc(-n2cncn2)cc1)c1cccc(F)c1 [Compound 6f, N-(4-(1H-1,2,4-triazol-1-yl)phenyl)-3-fluorobenzamide]",GABA content in brain tissue vs control,[1]; 2 h after administration,do not show significant differences
same,GABA content in brain tissue vs control,[1]; 7 d continuous administration,showed significant differences
same,EPM % of time in open arms vs control,mice [2]; 3 mg/kg,showed a significant difference; also recorded: showed significant differences
same,EPM % of time in open arms vs control,mice [2]; 6f 3 mg/kg + FMZ 5 mg/kg,also showed significant differences
same,EPM time in open arm vs 6f group,mice [2]; 6f 3 mg/kg + FMZ 5 mg/kg,significantly shortened the time of experimental animals in open arm
same,ED50 (scPTZ),"[3]; 0.5 h, value (95% CI)",19.7 mg/kg
same,PI (TD50/ED50) scPTZ,"[3]; Kunming, mouse, in vivo, 0.5 h",24.2
same,ED50,"[3]; Mus musculus, sc, 0.5 h, as given in the text, read-out: ED50 (scPTZ)",19.7 mg/kg
same,minimal effective dose,"[3]; Mus musculus, sc, 0.5 h after administration",30 mg/kg
same,minimal effective dose,"[3]; Mus musculus, sc, 4 h after administration",30 mg/kg
same,ED50 (MES),"MES-induced seizures; 0.5 h, value (95% CI)",13.1 mg/kg
same,PI (TD50/ED50) MES,"MES-induced seizures; Kunming, mouse, in vivo, 0.5 h",36.3
same,minimal effective dose,"MES-induced seizures; Mus musculus, 0.5 h after administration",30 mg/kg
same,minimal effective dose,"MES-induced seizures; Mus musculus, 4 h after administration",30 mg/kg
same,ED50,"MES-induced seizures; Mus musculus, 0.5 h, as given in the text",13.1 mg/kg
same,TD50 at 0.5 h,[4],477 mg/kg
same,TD50 (ROT),"mice [5]; 0.5 h, value (95% CI)",476.7 (518.3–438.5) mg
same,"NT (neurotoxicity, ROT), dose at which at least one of three animals showed neurotoxicity",mice [5]; 0.5 h after administration,>300 mg/kg
same,"NT (neurotoxicity, ROT), dose at which at least one of three animals showed neurotoxicity",mice [5]; 4 h after administration,>300 mg/kg
